Results on 16 compounds are retold here after US9867372B2, “Tetrazolinone compound and use of same” (SUMITOMO CHEMICAL COMPANY, LIMITED, priority 2013, dated 2018).

Holding throughout (format): in vivo
Series [1] relates to common cutworm (Spodoptela litura). Description: common cutworm larvae mortality test, treated artificial diet. Particulars: 500 ppm, 2 mL on Insecta LF, third instar larvae, after 6 days (Test Example 25).
Another series concerns (Adoxophyes orana). Kind of series: Adoxophyes orana larvae mortality test, treated artificial diet. Particulars: 500 ppm, 1 mL on Silkmate 2S, first instar larvae, after 7 days (Test Example 26).
Series [2] concerns cotton aphid (Aphis gossypii). Description: cotton aphid control test on cucumber, spray. Particulars: 144 h, 20 mL sprayed, counted after 6 days (Test Example 20). As for the experimental part:
Thirty (30) heads of cotton aphid (Aphis gossypii) (including adults and larvae) were released on the leaves of cucumber (cultivar: […]) grown in a polyethylene cup until the first true leaf was developed. Next day, 20 mL of the above test chemical solution was sprayed. […] Control value (%)={1-(Cb×Tai)/(Cai×Tb)}×100 wherein symbols in the equation represent the followings: Cb: Number of insects before spraying chemical solution in untreated area; Cai: Number of surviving insects in untreated area; Tb: Number of insects before spraying chemical solution in treated area; and Tai: Number of surviving insects in treated area.

Series [3] concerns barley net blotch fungus (Pyrenophora teres). Kind of series: barley net blotch control test, foliar spray before inoculation. Particulars: 3.1 ppm, sprayed 2 days before inoculation (Test Example 1, Comparative Example 1).
Series [4] has as its system tomato late blight fungus (Phytophthora infestans). Particulars: 500 ppm, sprayed 2 days before inoculation (Test Example 17).

Some results are limits rather than exact numbers.

Broadly, the mortality is the percentage killed. Consider `COc1ccccc1-c1cccc(OCc2c(C)cccc2-n2nnn(C)c2=O)c1` [compound 52], for which the mortality (in series [1]; in the series with (Adoxophyes orana)) was 100% each time.

Broadly, the pest or weed control is how far the test organism was held down. High values mean strong suppression, low ones weak suppression. `Cc1ccc(OCc2c(C)cccc2-n2nnn(C)c2=O)cc1-c1ccc(F)cc1` [compound 119] yielded a pest or weed control at 500 ppm in series [2] of no less than 90%.

On to `COc1ccc(-c2cccc(OCc3c(C)cccc3-n3nnn(C)c3=O)c2)nn1` [compound 165, 1-{2-[3-(3-methoxypyridazin-6-yl)phenoxymethyl]-3-methylphenyl}-4-methyl-1,4-dihydrotetrazol-5-one], for which the pest or weed control at 500 ppm in series [2] is no less than 90%.

As to `COc1ccc(-c2cc(C)cc(OCc3c(C)cccc3-n3nnn(C)c3=O)c2)cc1` [compound 142], the pest or weed control at 500 ppm in series [2] is no less than 90%.

For `Cc1cc(OCc2c(C)cccc2-n2nnn(C)c2=O)cc(-c2ccccc2)c1` [compound 143], in series [2], the pest or weed control at 500 ppm is no less than 90%.

`Cc1cccc(-n2nnn(C)c2=O)c1COc1cc(-c2ccccc2)ccc1Cl` [compound 128] came in with a pest or weed control at 500 ppm in series [2] of no less than 90%.

On to `Cc1cccc(-n2nnn(C)c2=O)c1COc1cccc(-c2ccc3ocnc3c2)c1` [compound 159], for which the pest or weed control at 500 ppm in series [2] was no less than 90%.

Turning to `COc1cccc(-c2cccc(OCc3c(C)cccc3-n3nnn(C)c3=O)c2F)c1` [compound 111], the pest or weed control at 500 ppm in series [2] was no less than 90%.

Turning to `COc1ccc(-c2cccc(OCc3c(OC)cccc3-n3nnn(C)c3=O)c2)cc1` [compound 44], the pest or weed control at 500 ppm in series [2] is no less than 90%.

Take `Cc1cccc(-n2nnn(C)c2=O)c1COc1cccc(-c2ccccc2)n1` [compound 1, 1-methyl-4-[3-methyl-2-(6-phenylpyridin-2-yloxymethyl)phenyl]-1,4-dihydrotetrazol-5-one]: the “area of lesion spots on the treated plant relative to that on an untreated plant” value in series [3] is no more than 30%.

`Cc1cccc(-n2nnn(C)c2=O)c1COc1cc(-c2ccc(Cl)cc2)ccc1F` [compound 134] yielded a pest or weed control at 500 ppm in series [2] of no less than 90%.

In the case of `Cn1nnn(-c2ccccc2COc2cccc(-c3ccccc3)n2)c1=O` [1-methyl-4-[2-(6-phenylpyridin-2-yloxymethyl)-phenyl]-1,4-dihydrotetrazol-5-one, reference compound], in series [3], the “area of lesion spots on the treated plant relative to that on an untreated plant” value is given as no less than 70%.

For `COc1ccc(-c2cccc(OCc3c(C)cccc3-n3nnn(C)c3=O)c2)cn1` [compound 57], in series [4], the “area of lesion spots on the treated plant relative to that on an untreated plant” value was no more than 30%.

For `Cc1ccc(OCc2c(C)cccc2-n2nnn(C)c2=O)cc1-c1ccc(Cl)cc1` [compound 122], the pest or weed control at 500 ppm in series [2] is no less than 90%.

In the case of `COc1cccc(-c2ccc(Cl)c(OCc3c(C)cccc3-n3nnn(C)c3=O)c2)c1` [compound 135], the pest or weed control at 500 ppm in series [2] is no less than 90%.

Compound `COc1ccc(-c2cc(OCc3c(C)cccc3-n3nnn(C)c3=O)ccc2OC)cn1` [compound 139] gave a pest or weed control at 500 ppm in series [2] of no less than 90%.
